Among the data in PMC2748668 (Pharmacological research : the official journal of the …, 2009) are Ki and Km values, retold here.

Where two headings read alike, the source gives them in different places.

The target of data set [1] is T1, human OATP1B1 (Homo sapiens, UniProt Q9Y6L6).
T1 sequence (Q9Y6L6 1-691): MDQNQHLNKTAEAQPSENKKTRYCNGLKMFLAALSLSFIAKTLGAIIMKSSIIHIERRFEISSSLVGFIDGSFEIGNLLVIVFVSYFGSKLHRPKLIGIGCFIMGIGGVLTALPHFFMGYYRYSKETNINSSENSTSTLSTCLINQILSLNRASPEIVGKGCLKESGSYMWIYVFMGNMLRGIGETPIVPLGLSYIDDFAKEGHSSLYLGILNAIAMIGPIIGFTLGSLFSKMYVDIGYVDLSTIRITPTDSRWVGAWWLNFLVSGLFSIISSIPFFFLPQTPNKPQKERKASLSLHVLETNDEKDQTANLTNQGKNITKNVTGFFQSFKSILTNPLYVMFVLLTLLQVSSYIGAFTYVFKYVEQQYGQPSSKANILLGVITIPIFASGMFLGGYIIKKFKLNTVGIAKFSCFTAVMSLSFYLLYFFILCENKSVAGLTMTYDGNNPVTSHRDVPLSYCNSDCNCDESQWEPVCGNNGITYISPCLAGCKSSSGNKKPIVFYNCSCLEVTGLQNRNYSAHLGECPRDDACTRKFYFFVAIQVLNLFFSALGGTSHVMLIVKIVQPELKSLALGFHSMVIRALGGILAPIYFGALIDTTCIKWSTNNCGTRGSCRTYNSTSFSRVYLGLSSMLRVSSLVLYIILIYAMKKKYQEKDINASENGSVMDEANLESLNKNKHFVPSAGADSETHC
The data set can be described thus: cell-based.

The target of data set [2] is T1, human OATP1B1.
The test system of the next data set is OATP1B1. The conditions noted are these: estrone-3-sulfate as substrate of OATP1B1; cited from earlier work.
The test system of a further data set is Oatp1a5. The conditions noted are these: estrone-3-sulfate as substrate of Oatp1a5; cited from earlier work.
The target in data set [3] is T1, human OATP1B1. Briefly: Inhibition kinetic studies.

With `NC(Cc1cc(I)c(Oc2cc(I)c(O)c(I)c2)c(I)c1)C(=O)O` (centres unmarked) [Thyroxine], at human OATP1B1 [1], the Ki (commonly the dissociation constant of the complex between target and ligand, obtained from inhibition or displacement) stood at 3.5 ± 0.7 µM. Same read-out and setting: under `Clc1ccccc1C(c1ccccc1)(c1ccccc1)n1ccnc1` [Clotrimazole] stands 7.6 ± 1.9 µM; under `C[C@]12CC[C@@H]3c4ccc(O)cc4CC[C@H]3[C@@H]1CC[C@@H]2O` [Estradiol], 3.3 ± 0.6 µM.

At human OATP1B1 [2], `CC(C)c1onc(-c2c(Cl)cccc2Cl)c1COc1ccc(/C=C/c2cccc(C(=O)O)c2)c(Cl)c1` [GW4064] yielded a Ki of 32.4 ± 6.7 µM. `C[C@H](CCC(=O)NCC(=O)O)[C@H]1CC[C@H]2[C@@H]3[C@H](O)C[C@@H]4C[C@H](O)CC[C@]4(C)[C@H]3C[C@H](O)[C@]12C` [Glycocholic acid] displayed a Ki on human OATP1B1 [1] of 22.2 ± 3.9 µM. On to `CN(CCOc1ccc(C[C@H](Nc2ccccc2C(=O)c2ccccc2)C(=O)O)cc1)c1ccccn1` [GW1929], for which the Ki at human OATP1B1 [2] was determined as 0.3 ± 0.05 µM. `CC#C[C@]1(O)CC[C@H]2[C@@H]3CCC4=CC(=O)CCC4=C3[C@@H](c3ccc(N(C)C)cc3)C[C@@]21C` [Mifepristone] displayed a Ki on human OATP1B1 [1] of 2.2 ± 0.3 µM. The compound `CC(C)OC(=O)C(C)(C)Oc1ccc(C(=O)c2ccc(Cl)cc2)cc1` [Fenofibrate] registered a Ki on human OATP1B1 [1] of 105 ± 26.7 µM. As to `C[C@H](CCC(=O)O)[C@H]1CC[C@H]2[C@@H]3CC[C@@H]4C[C@H](O)CC[C@]4(C)[C@H]3C[C@H](O)[C@]12C` [Deoxycholic acid], the Ki on human OATP1B1 [1] came to 3.2 ± 0.5 µM. Take `CC[C@H](C)C(=O)O[C@H]1C[C@@H](C)C=C2C=C[C@H](C)[C@H](CC[C@@H]3C[C@@H](O)CC(=O)O3)[C@H]21` [Mevinolin]: the Ki at human OATP1B1 [1] worked out at 12.7 ± 1.9 µM.

In the case of `C[C@]12CC[C@@H]3c4ccc(OS(=O)(=O)O)cc4CC[C@H]3[C@@H]1CCC2=O` [Estrone-3-sulfate], affinity at human OATP1B1 [2] was put at a Ki of 0.2 ± 0.02 µM. Further, the Km – broadly, the substrate concentration at which the rate is half of its maximum – was 2.4 µM in the data set with OATP1B1 and 268 µM with Oatp1a5.

For the compound `Cc1cccc(Nc2cc(Cl)nc(SCC(=O)O)n2)c1C` [WY-14643], the affinity at human OATP1B1 [1] corresponds to a Ki of 1.6 ± 0.11 µM. In turn, `C[C@H](CCC(=O)O)[C@H]1CC[C@H]2[C@@H]3[C@H](O)C[C@@H]4C[C@H](O)CC[C@]4(C)[C@H]3C[C@H](O)[C@]12C` [Cholic acid] came in with a Ki at human OATP1B1 [1] of 25 ± 3.3 µM. On human OATP1B1 [1], `C[C@H](CCC(=O)O)[C@H]1CC[C@H]2[C@@H]3[C@H](O)C[C@@H]4C[C@H](O)CC[C@]4(C)[C@H]3CC[C@]12C` [Chenodeoxycholic acid] yielded a Ki of 3.4 ± 0.5 µM.

In the case of `C[C@H](CCC(=O)O)[C@H]1CC[C@H]2[C@@H]3C(=O)C[C@@H]4CC(=O)CC[C@]4(C)[C@H]3CC(=O)[C@]12C` [Dehydrocholic acid], the Ki at human OATP1B1 [1] came out at 29.7 ± 5.7 µM. On to `CC(C)(Oc1ccc(CCNC(=O)c2ccc(Cl)cc2)cc1)C(=O)O` [Bezafibrate], for which the affinity at human OATP1B1 [1] corresponds to a Ki of 45.2 ± 5.9 µM. `C[C@@]12CCC[C@H]1[C@@H]1CC[C@H]3CCCC[C@]3(C)[C@H]1CC2` came in with a Ki at human OATP1B1 [1] of 374 ± 123 µM.

`C[C@H](CCC(=O)O)[C@H]1CC[C@H]2[C@@H]3CC[C@@H]4C[C@H](O)CC[C@]4(C)[C@H]3CC[C@]12C` [Lithocholic acid] showed an inhibition constant (Ki) at human OATP1B1 [1] of 1.2 ± 0.2 µM. On to `CC[C@H](C)C(=O)O[C@H]1C[C@H](O)C=C2C=C[C@H](C)[C@H](CC[C@@H](O)C[C@@H](O)CC(=O)O)[C@H]21` [Pravastatin], for which the inhibition constant Ki at human OATP1B1 [1] amounted to 21.8 ± 3.6 µM. With `C[C@H](CCC(=O)NCCS(=O)(=O)O)[C@H]1CC[C@H]2[C@@H]3[C@H](O)C[C@@H]4C[C@H](O)CC[C@]4(C)[C@H]3C[C@H](O)[C@]12C` [Taurocholic acid], the affinity on human OATP1B1 [3], expressed as Ki, was 11.4 ± 3.2 µM. Take `C[C@]12CC[C@@H]3c4ccc(O)cc4CC[C@H]3[C@@H]1CC[C@@H]2O[C@@H]1O[C@H](C(=O)O)[C@@H](O)[C@H](O)[C@H]1O`: the Km on human OATP1B1 [3] (Km of the model substrate given in the Ki column (footnote *), mean ± SD) is 5.9 ± 1.2 µM.
